Entries after “also recorded” stand apart in the source; their conditions may differ. Where two headings read alike, the source gives them in different places.
Experiments:
[1] = system: APAP-exposed isolated mouse liver cells (hepatocytes); experiment: Viability of APAP-exposed isolated mouse hepatocytes, graded protectant concentrations; format: cell-based; settings: read-out: EC50 (cytoprotection)
[2] = system: raloxifene-exposed hepatocytes
APAP-intoxicated mice = settings: for hepatoprotection in APAP-intoxicated mice, i. p. administration: i. p. 20 mins prior to APAP, THA 0.20-0.80, PG 0.40-2.40, 4-NAHA 0.04-0.08 mmol/kg; for hepatoprotection in APAP-intoxicated mice, oral administration: THA and PG 0.80-2.40, 4-NAHA 0.04-0.12, NAC 1.60-2.40 mmol/kg
From the text: Survival curves, THA and PG i. p. administration.
Survival curves, THA and PG oral administration.
Survival curves, 4-NAHA i. p. and oral administration.

[3] = system: raloxifene-exposed hepatocytes; experiment: Raloxifene-induced hepatocyte toxicity; settings: for protection against raloxifene: at 150 μM
mice [4] = system: mice
[5] = pKa and % anion at physiological pH; settings: for % in the carbanion / ionized nucleophilic state: physiological / cellular pH
[6] = system: isolated hepatocytes exposed to graded APAP; experiment: Isolated hepatocytes, fixed protectant and graded APAP concentrations; format: cell-based, mouse
From the text: FIG. 8A-8B. […] Data are expressed as mean percent of control±SEM and *indicates p<0.05.

APAP-exposed hepatocytes = experiment: Hepatocyte rescue: protectant added 2 hrs after APAP; format: cell-based, mouse
[7] = Computational data on THA analogues: pKa and % anion; format: physicochemical
From the text: Computational Data on THA Analogues:

[8] = In chemico prevention of thiol (GSH) depletion by acrolein; format: biochemical; settings: FIG. 2B
mice [9] = settings: cited from earlier work
[10] = In chemico prevention of thiol (GSH) depletion by NAPQI; format: biochemical; settings: FIG. 2A
[11] = system: carbon tetrachloride-induced hepatotoxicity in mice; settings: 0.032 mmol/kg p. o.; carbon tetrachloride 0.5 ml/kg i. p.; cited from earlier work
[12] = system: cell culture models of oxidative stress and electrophile (acrolein) toxicity; settings: cited from earlier work
[13] = 0.25 mM protectant, APAP 0.25-5.0 mM×4 hrs
[14] = 0.25 mM protectant, highest APAP concentration 5.0 mM
[15] = 1.0 mM protectant, APAP 0.25-5.0 mM×4 hrs
[16] = 0.25 mM protectant, APAP 1.0 mM

SMILES | hepatoprotection in APAP-intoxicated mice, oral administration (APAP-intoxicated mice) | protection against raloxifene [3] | EC50 ([1]; Mus musculus, Hepatocyte, 4 h) [µM] | % Anion (pH 7.4) [5] [%] | cytoprotection (viability) [6, 13] | cytoprotection (viability) [6, 15] | effect on viability, protectant added 2 hrs post-APAP (APAP-exposed hepatocytes; [16]) | effect on viability, protectant added 2 hrs post-APAP (APAP-exposed hepatocytes; 1.0 mM protectant) | toxicity measures (ALT appearance, mitochondrial membrane potential) ([6]; 1.0 mM protectant) | other results
CC(=O)c1cc(O)c(C(C)=O)c(O)c1 [4-NAHA, 4-acetyl-2,6-dihydroxy acetophenone] | effective over a broader dose-range | fully protective |  |  |  |  |  |  |  | EC50 ([1]; APAP 1.0 mM, 4 hrs, protectant 0.010-5.0 mM): 6 µM; relative ability to prevent raloxifene-induced hepatocyte toxicity [2]: superior protection; hepatoprotection (APAP-intoxicated mice; i. p. 0.04 mmol/kg): ineffective; hepatoprotection (APAP-intoxicated mice; i. p. 0.08 mmol/kg): significant hepatoprotection; hepatoprotection in APAP-intoxicated mice, i. p. administration (APAP-intoxicated mice): dose-dependent protection; hepatoprotection (APAP-intoxicated mice; oral 0.04 mmol/kg): ineffective; hepatoprotection (APAP-intoxicated mice; oral 0.12 mmol/kg, lethality significantly delayed): partially protective; delayed toxicity (mice [4]; all doses tested, 7 days): did not cause delayed toxicity; acute toxicity (mice [4]; doses 0.04-0.12 mmol/kg): not acutely toxic
Oc1cc(O)cc(O)c1 [PG, 1,3,5-trihydroxybenzene] |  |  | ~90 | 7.40 | fully protective up to the 1.0 mM APAP concentration | full hepatocyte protection irrespective of APAP concentration | arrested the progression of APAP-induced toxicity | complete restoration of viability |  | % in the carbanion / ionized nucleophilic state [5]: 7%; pKa (physchem): 8.45; cytoprotection (viability) [6, 14]: only partial cytoprotection
Oc1cc(O)cc(O)c1 [drawing 24] |  |  |  |  |  |  |  |  |  | % Anion (pH = 7.4) [7]: 07%; pKa ([7]; values without * (not estimates)): 8.5
O=C(CCc1ccc(O)cc1)c1c(O)cc(O)cc1O [drawing 21] |  |  |  |  |  |  |  |  |  | % Anion (pH = 7.4) [7]: 56%
CC(=O)C1CCCC1=O (stereo not drawn) [2-ACP, 2-acetylcyclopentanone] |  | partial protection | ~1000 | 28.0 | neither 2-ACP nor NAC provided cytoprotection beyond the lowest APAP concentration | partial cytoprotection | ineffective | truncated the rapid decline in viability | return toward normalization of the toxicity indices | prevention of acrolein-induced thiol (GSH) depletion [8]: better GSH protection from acrolein than THA or PG; effect on viability, protectant added 2 hrs post-APAP (APAP-exposed hepatocytes; 5 mM protectant, APAP 1.0 mM): promoted recovery of APAP-exposed hepatocytes
CC(=O)N[C@@H](CS)C(=O)O [NAC, N-acetyl cysteine] | effective APAP antidote only when administered orally | partial protection | ~1000 | 0.80 | neither 2-ACP nor NAC provided cytoprotection beyond the lowest APAP concentration | partial cytoprotection | ineffective | truncated the rapid decline in viability | return toward normalization of the toxicity indices | effect on viability, protectant added 2 hrs post-APAP (APAP-exposed hepatocytes; 5 mM protectant, APAP 1.0 mM): promoted recovery of APAP-exposed hepatocytes
O=C(c1ccc(OCCN2CCCCC2)cc1)c1c(-c2ccc(O)cc2)sc2cc(O)ccc12 [raloxifene, reference compound] |  |  |  |  |  |  |  |  |  | concentration producing hepatocyte toxicity ([3]; raloxifene exposure): 75 µM
CC(=O)c1c(O)cc(O)cc1O [THA, 2′,4′,6′-trihydroxyacetophenone] | dose-dependent hepatoprotection; also recorded: dose-dependent protection | fully protective | ~90 | 33.0 | fully protective up to the 1.0 mM APAP concentration | full hepatocyte protection irrespective of APAP concentration | partial recovery of viability | complete restoration of viability | normal | pKa [5]: 7.7; % in the carbanion / ionized nucleophilic state [5]: approximately 33%; pKa (physchem): 7.75; oral LD50 mice (mice [9]): 3.20 gm/kg; hepatoprotection in APAP-intoxicated mice, i. p. administration (APAP-intoxicated mice): dose-dependent (0.20-0.80 mmol/kg) hepatoprotection; cytoprotection (viability) [6, 14]: preserved cell viability; prevention of acrolein-induced thiol (GSH) depletion [8]: better thiol protection than PG; relative ability to prevent raloxifene-induced hepatocyte toxicity ([3]; FIG. 10 legend): superior protection; prevention of NAPQI-induced thiol (GSH) depletion [10]: better thiol protection than PG; also recorded: better protection against NAPQI-induced GSH loss; lethality associated with the i. p. doses (mice [4]; i. p. doses of FIG. 3): No lethality; prevention of carbon tetrachloride-induced hepatotoxicity [11]: completely prevent
O=C(CCc1ccc(O)cc1)c1c(O)cc(O)cc1O [Phloretin, phloretin] |  |  |  | 55.0 |  |  |  |  |  | hepatoprotection (APAP-intoxicated mice; i. p. 0.200 mmol/kg, APAP 500 mg/kg p. o.): marginal hepatoprotection; effect of higher concentrations ([12]; above the protective range): cytotoxic; concentrations giving significant cytoprotection ([12]; several cell culture models): 100 to 250 µM; lethality when administered alone (mice [4]; 0.40-2.40 mmol/kg, administered alone): associated with lethality

Reference: patent US11413255B2, “Multifunctional cytoprotectant for treatment of pathogenic processes mediated by oxidative stress and toxic electrophiles” (Montefiore Medical Center, priority 2015, dated 2022)
